Data set [1] has as its system rabbit red blood cells (RBCs). In words: Deformation-induced ATP release from rabbit RBCs pumped through microbore tubing (luciferin/luciferase chemiluminescence). It is filed as cell-based. The protocol:
(§1) Preparation of RBCs. Rabbits (New Zealand whites, males, 2.0-2.5 kg) were anesthetized with ketamine ([…], i.m.) and xylazine (1 mg/kg, i.m.) followed by pentobarbital sodium (15 mg/kg i.v.). A cannula was placed in the trachea and the animals were ventilated with room air. A catheter was placed into a carotid artery for administration of heparin and for phlebotomy. After heparin (500 units, i.v.), the animals were exsanguinated. Human blood was obtained by venipuncture without the use of a tourniquet (antecubital fossa) and collected into a heparinized syringe. Blood was centrifuged at 500×g at 4 C for 10 min. The plasma and buffy coat were discarded. The RBCs were resuspended and washed three times in a physiological salt solution [PSS, containing in mM: 4.7 KCl, 2.0 CaCl2, 140.5 NaCl […], 21.0 tris(hydroxymethyl)aminomethane, 11.1 dextrose with 5% bovine serum albumin (final pH 7.4)]. Cells were prepared on the day of use and experiments were finished within 8 hours of removal from the animal or human subjects. All procedures were approved by the Animal Investigation Committee or the Human Investigation Committee at Wayne State University.
(§2) Measurement of ATP. Human C-peptide (American Peptide Co., Sunnyvale, Calif.), 0.25 mg (MW=3020 g/mol), was dissolved in […] of purified water (18.2 megaohm) to yield a concentration of 83 μM. […] The resulting chemluminescence reaction flowed through a final potion of fused-silica microbore tubing that was placed over a photomultiplier tube, where the emission was detected. The resultant current was measured as a potential by a data acquisition board operated by a program written with the LabView software package (National Instruments, Austin, Tex.).
Introduction. […] Upon deformation in the tubing, the RBCs release ATP that is measured using a well-established chemiluminescence assay for ATP. The concentrations of RBC-derived ATP are measured in the presence and absence of synthetic C-peptide.
C-Peptide-Induced Release of ATP. RBCs obtained from rabbits are pumped through microbore tubing having an inside diameter of […] and the resultant ATP released by the cells upon deformation in the tubing is measured. […] Another aliquot from the same RBC sample is incubated in 1 nM C-peptide and the resultant ATP release measured every 2 h for a period up to 6 h. […] As shown, the ATP release (determined by a chemiluminescence assay) from those cells incubated in the c-peptide increased approximately 2.9 times over a period of […]. […] If cell lysis were occurring, the glybenclamide would have no affect on the measured ATP as it would be present in extracellular form whether or not glybenclamide was introduced to the RBCs. […]

Data set [2] has as its system RBCs. In words: Lysis control: ATP signal of RBC solutions under non-flow conditions (luminometer). Conditions: 200 μL RBC solution and 200 μL luciferin/luciferase. It is filed as cell-based. The protocol:
To ensure that the resulting increase in ATP release was due to C-peptide interacting with the RBCs and not cell lysis, the RBC solutions were measured under non-flow conditions using a luminometer with 200 μL of the RBC solution and 200 μL of the luciferin/luciferase solution. […] To ensure that lysis was not occurring in the tubing, a solution of 0.01 M glybenclamide was prepared by adding 49 mg of glybenclamide (Sigma) to 2 mL of a 0.1 M solution of sodium hydroxide. To this, 7.94 mL of a dextrose solution (1 g dextrose in 20 mL of purified water) was added. The mixture was heated carefully to 52° C. until all of the glybenclamide was dissolved. Once the solute was completely dissolved, 1 mL of this solution was added to 9 mL of PSS, resulting in a solution with a concentration 0.001 M. From this diluted solution, 2.5 mL were added to 2.5 mL of 7% hematocrit RBC solution, resulting in a 3.5% hematocrit solution of RBCs. This solution was allowed to incubate for 15 minutes. As a comparison, 2.5 mL of wash buffer without glybenclamide was added to 2.5 mL of 7% hematocrit RBCs. After 15 minutes, the RBC solutions were assayed.

In the next data set the test system is diabetic human RBCs. In words: ATP release from RBCs of patients with type II diabetes. It is filed as cell-based. The conditions noted are these: for ATP release: diabetic human RBCs, ±SEM (n=7). The protocol: as §1
as §2, with “μM. Next, an appropriate volume of this C-peptide solution was added to 10 mL of a 7% solution of RBCs to create a solution containing the C-peptide at concentrations in the 1-5 nM range.” for “μM.”, “Tex.). […]” for “Tex.).”

Data set [3] in a line: Electrospray ionization mass spectrometry of C-peptide and metal adducts in aqueous solution. The format is physicochemical. The conditions noted are these: ESI-MS, remaining in solution for periods >30 days. The protocol:
Mass Spectrometric Analysis of Metal-Peptide Binding. […] Thus, alternative postulated causes are tested, including that a covalent modification of the peptide, e.g., induction or lysis of a side-chain-to-side-chain bond or of a moiety covalently attached to an amino acid residue, might be involved, or that non-covalent interaction with another chemical species, e.g., a metal ion, might be involved in this effect.
The data in FIG. 3 reveal some information about the possible loss of activity of the C-peptide after preparation in the aqueous solvent. Specifically, the mass spectrum shown in FIG. 3a is that of peptide prepared in water and analyzed within 0.5 h of preparation. In 3a, the [M+3H]^3+ peak is present as are other forms of the peptide with sodium atoms, potassium atoms, or a combination thereof. […] The presence of this Fe(II) adduct to the C-peptide is not present 24 h after preparation.
Although the Fe(II)-bound C-peptide has the ability to increase ATP-release from deformed RBCs, its activity also appears somewhat limited. […] The unexpected result is that the population of Fe(II)-C-peptide adduct begins to diminish within 24 h after the addition of an Fe(II) source, and Fe(II) is then replaced by either sodium or potassium, or both, cations in the C-peptide complex.
Improving Metal-Induced Activity of C-Peptide. […]

Data set [4] has as its system RBCs. The experiment in a line: Loss of ATP-release bioactivity of C-peptide preparation in water (metaanalysis of repeats of Experiments 1 and 2). It is filed as cell-based.

For `COc1ccc(Cl)cc1C(=O)NCCc1ccc(S(=O)(=O)NC(=O)NC2CCCCC2)cc1` [glybenclamide, reference compound], the “effect on the C-peptide-induced increase in ATP release” value in data set [1] (RBCs incubated in glybenclamide) is “can be inhibited”.
In the case of “C-peptide: Human proinsulin C-peptide (American Peptide Co.), MW 3020 g/mol, synthetic (EAEDLQVGQVELGGGPGAGSLQPLALEGSLQ; (1)..(31) Hominidae sp. proinsulin C-peptide Human (Genbank P01308..gi124617), Chimpanzee (Genbank NP_001008996.1.. gi57113877), Orangutan (Genbank Q8HXV2..gi48428254), and Gorilla (Genbank AAM76640.1..gi23379796); listed as Hominidae sp.)”, in data set [1] (1 nM C-peptide, over the 6 h period), the “increase in ATP release versus control (buffer without C-peptide)” value was “nearly three times that of the RBCs incubated with a control”. In addition, in data set [1] (1 nM c-peptide, over a period of 8 h, normalized values), the “increase in ATP release” value is given as “approximately 2.9 times”. Besides, in data set [1] (C-peptide kept at 4° C. for >30 days), the “ability to induce ATP release from deformed RBCs” value is “no longer has the ability to induce ATP release from deformed RBCs”. Besides, in the data set on RBCs [2], the “ATP signal under non-flow conditions” value was “No detectable signals”. Besides, the “restoration of ATP release levels of diabetic RBCs” value with diabetic human RBCs (RBCs of patients with type II diabetes (n=7)) is “statistically equivalent to that of healthy, non-diabetic control patients”. Further, the ATP release in the data set on diabetic human RBCs (after 6 hours of incubation with freshly prepared C-peptide preparation) is 256.1 ± 38.7 nM; in the data set on diabetic human RBCs (at 0 hours, freshly prepared C-peptide preparation), 63.6 ± 12.6 nM. The “degradation or cleavage of the peptide in solution” value in data set [3] is “not undergoing any type of degradation or cleavage”. Moreover, the “time to loss of bioactivity after preparation in water” value in the data set on RBCs [4] was 24 to 36 h.
